Data reported in ChEMBL document CHEMBL4411303, “Synthesis of tetrazole derivatives bearing pyrrolidine scaffold and evaluation of their antifungal activity against Candida albicans” (Eur J Med Chem, 2019).
pIC50: −log10 of the molar value. In brackets after ≈: the same amount, converted by molar mass. Activity calls are given as the source filed them. No cut-off for these calls is given here.

Tests used:
[1] = Toxicity in Galleria mellonella larvae assessed as movement melanization at 41.47 uM measured after 128 hrs (reference value: 0%)
[2] = Toxicity in Galleria mellonella larvae assessed as survival rate at 41.47 uM measured after 120 hrs (reference value: 100%)
[3] = Toxicity in Galleria mellonella larvae assessed as movement melanization at 41.47 uM measured after 18 hrs (reference value: 0%)
[4] = Toxicity in Galleria mellonella larvae assessed as cocoon formation at 41.47 uM measured after 48 hrs (reference value: 85 +/- 5%)
[5] = Toxicity in Galleria mellonella larvae assessed as cocoon formation at 41.47 uM measured after 48 hrs (reference value: 100 +/- 0%)
Candida albicans [6] = assay: Antibiofilm activity against Candida albicans ATCC 90028 assessed as inhibition of biofilm formation after 24 hrs by XTT assay; assay type: functional, organism-based; conditions: ATCC 90028, 24 h
[7] = Toxicity in Galleria mellonella larvae assessed as survival rate at 41.47 uM measured after 48 hrs (reference value: 100%)
Candida albicans [8] = assay: Antifungal activity against Candida albicans ATCC 90028 assessed as planktonic growth inhibition at 41.47 uM after 48 hrs by M27-A3 protocol based method relative to control; assay type: functional; conditions: ATCC 90028, 48 h, read-out: GI
Candida albicans [9] = assay: Antifungal activity against Candida albicans ATCC 90028 assessed as planktonic growth inhibition at 20.73 uM after 48 hrs by M27-A3 protocol based method relative to control; assay type: functional; conditions: ATCC 90028, 48 h, read-out: GI
Candida albicans [10] = assay: Induction of reactive oxygen species generation in Candida albicans ATCC 90028 assessed as ROS level at 41.47 uM after 18 hrs by DCFDA probe based flow cytometry (reference value: 0.3%); assay type: functional
Candida albicans [11] = assay: Antifungal activity against Candida albicans ATCC 90028 assessed as planktonic growth inhibition at 0.32 uM after 48 hrs by M27-A3 protocol based method relative to control; assay type: functional; conditions: ATCC 90028, 48 h, read-out: GI
Candida albicans [12] = assay: Cell cycle arrest in Candida albicans ATCC 90028 assessed as accumulation at G0/G1-phase by propidium iodide staining based flow cytometry; assay type: functional, organism-based
[13] = Toxicity in Galleria mellonella larvae assessed as survival rate at 41.47 uM measured after 18 hrs (reference value: 100%)
Candida albicans [14] = assay: Antifungal activity against Candida albicans ATCC 90028 assessed as planktonic growth inhibition at 2.59 uM after 48 hrs by M27-A3 protocol based method relative to control; assay type: functional; conditions: ATCC 90028, 48 h, read-out: GI
[15] = Selectivity index, ratio of CC50 for African green monkey Vero cells to IC50 for Candida albicans ATCC 90028; assay type: toxicity; conditions: read-out: Ratio CC50/IC50
Candida albicans [16] = assay: Antifungal activity against Candida albicans ATCC 90028 assessed as planktonic growth inhibition at 0.08 uM after 48 hrs by M27-A3 protocol based method relative to control; assay type: functional; conditions: ATCC 90028, 48 h, read-out: GI
Candida albicans [17] = assay: Antifungal activity against Candida albicans ATCC 90028 assessed as planktonic growth inhibition at 5.18 uM after 48 hrs by M27-A3 protocol based method relative to control; assay type: functional; conditions: ATCC 90028, 48 h, read-out: GI
[18] = Toxicity in Galleria mellonella larvae assessed as cocoon formation at 41.47 uM measured after 18 hrs (reference value: 60 +/- 20%)
Candida albicans [19] = assay: Antifungal activity against Candida albicans ATCC 90028 assessed as planktonic growth inhibition at 0.65 uM after 48 hrs by M27-A3 protocol based method relative to control; assay type: functional; conditions: ATCC 90028, 48 h, read-out: GI
Candida albicans [20] = assay: Antifungal activity against Candida albicans ATCC 90028 assessed as reduction in cell growth after 48 to 72 hrs in presence of ergosterol by M27-A3 protocol based method; assay type: functional
Candida albicans [21] = assay: Induction of Candida albicans ATCC 90028 internalization in mouse RAW264.7 cells assessed as reduction in fungus-induced cell damage by measuring live and early apoptotic cells at 41.47 uM after 2 hrs acridine orange/ethidium bromide staining based confocal scanning microscopic analysis; assay type: functional, organism-based
Candida albicans [22] = assay: Inhibition of Candida albicans ATCC 90028 cell adhesion to human TR146 cells at reduction in cell adherence at 41.47 uM relative to control; assay type: functional; conditions: ATCC 90028, TR146
Candida albicans [23] = assay: Antifungal activity against Candida albicans ATCC 90028 assessed as reduction in cell growth after 48 to 72 hrs by M27-A3 protocol based method; assay type: functional
Candida albicans [24] = assay: Fungicidal activity against Candida albicans ATCC 90028 assessed as log reduction in fungal load incubated for 48 hrs followed by replating on sabouraud dextrose agar plate and measured after 48 hrs; assay type: functional
Candida albicans [25] = assay: Antifungal activity against Candida albicans ATCC 90028 assessed as planktonic growth inhibition at 0.16 uM after 48 hrs by M27-A3 protocol based method relative to control; assay type: functional; conditions: ATCC 90028, 48 h, read-out: GI
Candida albicans [26] = assay: Antifungal activity against Candida albicans ATCC 90028 assessed as planktonic growth inhibition at 10.37 uM after 48 hrs by M27-A3 protocol based method relative to control; assay type: functional; conditions: ATCC 90028, 48 h, read-out: GI
Candida albicans [27] = assay: Antifungal activity against Candida albicans ATCC 90028 assessed as planktonic growth inhibition at 1.3 uM after 48 hrs by M27-A3 protocol based method relative to control; assay type: functional; conditions: ATCC 90028, 48 h, read-out: GI
[28] = Toxicity in Galleria mellonella larvae assessed as movement melanization at 41.47 uM measured after 48 hrs (reference value: 0%)

Fc1ccc(C2CCCN2CCCn2nnc(-c3ccc(Cl)cc3)n2)cc1 (stereo not drawn)
Activity [1]: 13% | survival at 120 h, 41.47 µM [2]: 83% | Activity [3]: 0% | Activity [4]: 80% | Activity [5]: 80% | pIC50 (Candida albicans [6]): 4.98 | survival at 48 h, 41.47 µM [7]: 100% | inhibition of growth at 41.47 µM (Candida albicans [8]): 99% | inhibition of growth at 20.73 µM (Candida albicans [9]): 98.9% | Activity (Candida albicans [10]): 12 - 16% | inhibition of growth at 0.32 µM (Candida albicans [11]): 99.4% | Activity (Candida albicans [12]): Active | survival at 18 h, 41.47 µM [13]: 100% | inhibition of growth at 2.59 µM (Candida albicans [14]): 99.5% | selectivity ratio [15]: 2 | inhibition of growth at 0.08 µM (Candida albicans [16]): 99.4% | inhibition of growth at 5.18 µM (Candida albicans [17]): 99.4% | Activity [18]: 60% | inhibition of growth at 0.65 µM (Candida albicans [19]): 99.4% | MIC (Candida albicans [20]): 20.7 µM | Activity (Candida albicans [21]): Active | inhibition at 41.47 µM (Candida albicans [22]): > 95% | MIC (Candida albicans [23]): 10.4 µM (≈ 4 µg/mL) | log(activity) (Candida albicans [24]): -0.2 | inhibition of growth at 0.16 µM (Candida albicans [25]): 99.4% | inhibition of growth at 10.37 µM (Candida albicans [26]): 99.1% | inhibition of growth at 1.3 µM (Candida albicans [27]): 99.2% | Activity [28]: 0%
